# “Also recorded” adds a separate entry of the source. Read-outs that look alike come from different tables or passages of the source.
# Tests used:
# [1] = system: Golgi furin in CHO-GRAPfurin cells; test: SEAP activity assay in CHO-GRAPfurin cells; assay type: cell-based, Chinese hamster; details: 100 µM, 20–24 h
# [2] = system: anthrax toxin (PA + LF) cytotoxicity in RAW264.7 cells; assay type: cell-based, murine
# [3] = system: HT1080 fibrosarcoma cells; test: HT1080 cell migration assay; assay type: cell-based, human; details: for inhibition at 100 µM: Homo sapiens, HT-1080, 24 h, read-out: inhibition of HT1080 cell migration, 100 µM, 24 h
# Soluble human furin = Soluble human furin (Homo sapiens, UniProt P09958); test: Furin enzyme assay, IC50 and Ki determination
# Chain of Soluble human furin (P09958 108-715 limits assumed): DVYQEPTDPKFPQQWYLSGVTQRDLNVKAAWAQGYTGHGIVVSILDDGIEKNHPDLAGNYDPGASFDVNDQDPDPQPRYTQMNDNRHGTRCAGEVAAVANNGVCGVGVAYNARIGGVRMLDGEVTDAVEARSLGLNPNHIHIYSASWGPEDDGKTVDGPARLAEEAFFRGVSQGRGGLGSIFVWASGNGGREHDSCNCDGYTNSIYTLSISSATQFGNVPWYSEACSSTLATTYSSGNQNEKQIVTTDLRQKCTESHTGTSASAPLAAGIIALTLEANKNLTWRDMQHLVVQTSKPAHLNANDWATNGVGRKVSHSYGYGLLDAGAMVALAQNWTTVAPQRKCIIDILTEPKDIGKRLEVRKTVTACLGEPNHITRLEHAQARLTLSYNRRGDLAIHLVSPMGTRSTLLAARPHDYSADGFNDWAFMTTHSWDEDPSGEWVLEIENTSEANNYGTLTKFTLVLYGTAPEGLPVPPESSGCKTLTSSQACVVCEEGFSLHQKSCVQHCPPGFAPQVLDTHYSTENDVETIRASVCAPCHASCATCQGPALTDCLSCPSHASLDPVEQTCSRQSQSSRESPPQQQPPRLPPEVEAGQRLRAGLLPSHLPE
# [4] = system: Pseudomonas aeruginosa exotoxin A cytotoxicity in CHO DG44 cells; test: Pseudomonas exotoxin A assay; assay type: cell-based, Chinese hamster
# skin tumor = details: cited from earlier work
# [5] = system: human fibrosarcoma HT1080 cells; details: by inhibiting proMT1-MMP processing; cited from earlier work
# PACE4 = details: cited from earlier work
# furin = details: Ki values taken from the literature; cited from earlier work
# PC5 = details: cited from earlier work
# PC1/3 = PC1/3 inhibition; assay type: biochemical; details: for inhibition of PC1/3 (in words): 10 µM; for inhibition of PC1/3: 100 µM
# [6] = concentration not stated in the sentence (10 and 100 µM tested)
Molecule,"inhibition of intracellular (TGN) furin, SEAP release (in words) [1]","protection against anthrax toxicity (in words) ([2]; 10 µM inhibitor, 2 h)","protection against anthrax toxicity (in words) ([2]; 100 µM inhibitor, 2 h)","protection against anthrax toxicity (in words) [2, 6]",inhibition at 100 µM [3],"protection against Pseudomonas exotoxin A (in words) [4, 6]","inhibition of cell migration (in words) ([3]; 100 µM, 24 h)",also measured
"N=C(N)Nc1ccc(Oc2cccc(Oc3ccc(NC(=N)N)cc3NC(=N)N)c2)c(NC(=N)N)c1 [compound 2f, 1,3-bis(2,4-diguanidinophenoxy)benzene]",only slightly inhibited,almost complete protection; also recorded: complete inhibition of anthrax toxicity,excellent protection,highly efficient protection,20 to 25%,good protection,–,inhibition of furin in vitro (in words) (Soluble human furin): micromolar potency
dec-RVKR-CMK,–,–,–,–,–,–,–,skin tumor progression (in words) (skin tumor): decreases skin tumor progression
naphthofluorescein disodium salt [B3],–,–,–,–,–,–,–,cell mobility and invasiveness of HT1080 cells (in words) [5]: prevented cell mobility and invasiveness
"N=C(N)Nc1ccc(Oc2cccc(Oc3ccc(NC(=N)N)cc3)c2)cc1 [compound 2c, 1,3-bis(4-guanidinophenoxy)benzene]",–,–,–,–,–,–,the most potent inhibitor; also recorded: inhibited migration; also recorded: completely inhibited cell mobility,–
"N=C(N)Nc1ccc(OCCCOc2ccc(NC(=N)N)cc2)cc1 [compound 2a, 1,3-bis(4-guanidinophenoxy)propane]",–,–,unable to block anthrax toxicity,–,~40%,–,inhibited migration,–
"N=C(N)Nc1ccc(OC2CC(Oc3ccc(NC(=N)N)cc3)C(NC(=N)N)CC2NC(=N)N)cc1 (centres unmarked) [compound 1g, 1,1'-(4,6-bis(4-guanidinophenoxy)cyclohexane-1,3-diyl)diguanidine]",unable to inhibit,complete inhibition of anthrax toxicity,–,efficiently protected cells against anthrax; also recorded: potently prevented anthrax toxicity,–,only moderate protection; also recorded: modest effect,did not inhibit cell migration; also recorded: unable to inhibit,cross-inhibition of PACE4 (in words) (PACE4): substantial cross-inhibition; potency against furin in vitro (in words) (furin): nanomolar potency; cross-inhibition of PC5 (in words) (PC5): substantial cross-inhibition
"N=C(N)Nc1ccc(O[C@@H]2CCC[C@H](Oc3ccc(NC(=N)N)cc3NC(=N)N)C2)c(NC(=N)N)c1 [2e, cis-1,3-bis(2,4-diguanidinophenoxy)cyclohexane]",–,–,excellent protection,–,20 to 25%,good protection,–,inhibition of PC1/3 (in words) (PC1/3): no inhibition detected; inhibition of PC1/3 (PC1/3): 38%
"N=C(N)Nc1ccc(O[C@@H]2CCC[C@H](Oc3ccc(NC(=N)N)cc3)C2)cc1 [2b, cis-1,3-bis(4-guanidinophenoxy)cyclohexane]",–,–,–,–,~40%,–,inhibited migration,–
"N=C(N)Nc1ccc(OC2CC(Oc3ccc(NC(=N)N)cc3NC(=N)N)C(NC(=N)N)CC2NC(=N)N)cc1 (centres unmarked) [compound 1b, 1,1'-(4-((2,4-diguanidino-5-(4-guanidinophenoxy)cyclohexyl)oxy)-1,3-phenylene)diguanidine]",block release of a Golgi reporter; also recorded: able to inhibit intracellular furin; also recorded: able to inhibit TGN furin,complete inhibition of anthrax toxicity,–,protect cells against Bacillus anthracis (anthrax); also recorded: capable of blocking both Pseudomonas and anthrax toxemia at low doses,35%,protect cells against Bacillus anthracis (anthrax) and Pseudomonas aeruginosa intoxication; also recorded: capable of blocking both Pseudomonas and anthrax toxemia at low doses,retard tumor cell migration; also recorded: good inhibitors of cell migration; also recorded: inhibited cell migration,"potency against furin in vitro (in words) (furin): nanomolar potency; protection against Pseudomonas exotoxin A (in words) ([4]; 10 µM inhibitor, 20–24 h): completely prevent Pseudomonas toxin cytotoxicity"
"N=C(N)Nc1ccc(OCCCOc2ccc(NC(=N)N)cc2NC(=N)N)c(NC(=N)N)c1 [2d, 1,3-bis(2,4-diguanidinophenoxy)propane]",–,–,excellent protection,–,–,good protection,–,"inhibition of HT1080 cell migration ([3]; 100 µM, 24 h): around 40%; inhibition of PC1/3 (in words) (PC1/3): no inhibition detected; inhibition of PC1/3 (PC1/3): 51%"
